Source: patent publication US8318949B2, “Organic compounds” (Novartis AG, priority 2008, dated 2012)

Key:
[1] = target: T1, stearoyl-CoA desaturase (SCD1) (Mus musculus, UniProt P13516); assay: Stearoyl-CoA desaturase inhibition, mouse liver microsomes (release of 3H2O from [9,10-3H]stearoyl-CoA); format: biochemical; conditions: 15 min incubation, 25° C., read-out: Microsomal IC50
T1 construct: Male ICR outbread mice, on a high-carbohydrate, low fat diet; from tissue; host or cells: liver microsomes of male ICR mice on a high-carbohydrate, low fat diet
T1 sequence (P13516 1-355): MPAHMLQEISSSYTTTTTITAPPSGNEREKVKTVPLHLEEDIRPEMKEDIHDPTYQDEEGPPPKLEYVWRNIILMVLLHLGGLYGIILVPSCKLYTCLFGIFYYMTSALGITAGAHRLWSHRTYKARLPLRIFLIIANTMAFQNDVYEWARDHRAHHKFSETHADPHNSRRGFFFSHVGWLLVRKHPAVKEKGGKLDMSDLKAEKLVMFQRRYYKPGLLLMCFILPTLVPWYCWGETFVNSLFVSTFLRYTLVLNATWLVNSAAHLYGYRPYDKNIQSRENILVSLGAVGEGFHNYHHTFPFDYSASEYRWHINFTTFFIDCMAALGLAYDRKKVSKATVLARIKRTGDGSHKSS
Source text: The identification of compounds of the invention as SCD inhibitors was readily accomplished using the SCD enzyme and microsomal assay procedure described in Shanklin J. and Summerville C., Proc. Natl. Acad. Sci. USA (1991), Vol. 88, pp. 2510-2514.
Measuring Stearoyl-CoA Desaturase Inhibition Activity of a Test Compound Using Mouse Liver Microsomes
The identification of compounds of the invention as SCD inhibitors was readily accomplished using the SCD microsomal assay procedure described in Shanklin J. and Summerville C., Proc. Natl. Acad. Sci. USA (1991), Vol. 88, pp. 2510-2514.
Male ICR outbread mice, on a high-carbohydrate, low fat diet, under light halothane (15% in mineral oil) anesthesia are sacrificed by exsanguination during periods of high enzyme activity. Livers are immediately rinsed with cold 0.9% NaCl solution, weighed and minced with scissors. All procedures are performed at 4° C. unless specified otherwise. Livers are homogenized in a solution (1/3 w/v) containing 0.25 M sucrose, 62 mM potassium phosphate buffer (pH 7.0), 0.15 M KCl, 15 mM N-acetyleysteine, 5 mM MgCl2, and 0.1 mM EDTA using 4 strokes of a Potter-Elvehjem tissue homogenizer. The homogenate is centrifuged at 10,400×g for 20 min to eliminate mitochondria and cellular debris. The supernatant is filtered through a 3-layer cheesecloth and centrifuged at 105,000×g for 60 min. The microsomal pellet is gently resuspended in the same homogenization solution with a small glass/teflon homogenizer and stored at −70° C. The absence of mitochondrial contamination is enzymatically assessed. The protein concentration is measured using bovine serum albumin as the standard.
Desaturase activity is measured as the release of ^3H2O from [9,10-^3H]stearoyl-CoA. Reactions per assay point conditions are as follows: 2 μL 1.5 mM stearoyl-CoA, 0.25 μL 1 mCi/mL ^3H stearoyl CoA, 10 μL 20 mM NADH, 36.75 μL 0.1 M PK buffer (K2HPO4/NaH2PO4, pH 7.2). The test compound or control solution is added in a 1 μL volume. Reactions are started by adding 50 μL of microsomes (1.25 mg/mL). The plates are mixed and after 15 min incubation on a heating block (25° C.), the reactions are stopped by the addition of 10 μL 60% PCA. An aliquot of 100 μL is then transferred to a filter plate pretreated with charcoal and the plate centrifuged at 4000 rpm for 1 minute. The flow through containing the ^3H2O released by the SCD1 desaturation reaction is added to scintillation fluid and the radioactivity measured in a Packard TopCount. The data is analysed to identify the IC50 for test compounds and reference compounds.
The activity was defined in terms of % SCD enzyme activity remaining at the desired concentration of the test compound or as the IC50 concentration. The IC50 (affinity) of the example compounds toward the stearoyl-CoA desaturase is comprised between around […] and 0.0001 μM or between around 5 μM and 0.0001 μM or between around 1 μM and 0.0001 μM.

**Q.** With `Cc1nc(N2CCN(Cc3cccc(C(F)(F)F)c3)C2=O)sc1-c1cc[nH]n1` [Example 17.2, 1-(4-methyl-5-(1H-pyrazol-3-yl)thiazol-2-yl)-3-(3-(trifluoromethyl)benzyl)imidazolidin-2-one] as the compound, how does the IC50 [1] read?
**A.** Its IC50 is 186 nM.

**Q.** And the melting point?
**A.** Its melting point is 209 to 214 °C.

**Q.** Which IC50 [1] does the source give for `Cc1nc(N2C[C@@H](C)N(Cc3ccc(F)cc3)C2=O)sc1C(=O)NCc1cccnc1` [Example 2.7, (R)-2-(3-(4-Fluorobenzyl)-4-methyl-2-oxoimidazolidin-1-yl)-4-methyl-N-(pyridin-3-ylmethyl)thiazole-5-carboxamide] here?
**A.** The IC50 was 36 nM.

**Q.** And the melting point?
**A.** The melting point was 135 to 136 °C.

**Q.** With `Cc1nc(N2CCN(C(C)c3ccccc3)C2=O)sc1C(=O)NCc1cncs1` (centres unmarked) [Example 20-26, 4-methyl-2-(2-oxo-3-(1-phenylethyl)-imidazolidin-1-yl)-N-(thiazol-5-yl-methyl)thiazole-5-carboxamide] as the compound, how does the IC50 [1] read?
**A.** Its IC50 is 11 nM.
